Experimental data from patent US7091229B2, “Tricyclic lactam and sultam derivatives and their use as histone deacetylase inhibitors” (Hoffman-La Roche Inc., priority 2001, dated 2006).

System: HDAC
Test: HDAC inhibition assay using an aminocoumarin derivative of an omega-acetylated lysine as substrate
Format: biochemical
Conditions: compound concentration 10 nM
Experimental: To determine the HDAC inhibitory properties of the compounds of the invention an assay was performed using an aminocoumarin derivative of an omega-acetylated lysine as substrate for the enzyme. This assay has been described in detail in the literature (Nucleic Acid Research 1999, 27, 2057–2058. Using the protocol described therein, the inhibitory effect of representative compounds was determined at a concentration of 10 nM. The observed inhibition rates for selected compounds are shown in Table 1: […]

Row | SMILES | Inhibitory effect at 10 nM in % [%]
1 | O=C(CCCCCCCN1c2cccc3cccc(c23)S1(=O)=O)NO [Example 1, 8-(1,1-dioxo-2H-naphtho[1,8-cd]isothiazol-2-yl)-octanoic acid hydroxyamide] | 64
2 | O=C(CCCCCCN1c2cccc3cccc(c23)S1(=O)=O)NO [Example 2, 7-(1,1-dioxo-2H-naphtho[1,8-cd]isothiazol-2-yl)-heptanoic acid hydroxyamide] | 90
3 | O=C(CCCCCCCN1C(=O)c2cccc3cccc1c23)NO [Example 3, 8-(2-oxo-2H-benzo[cd]indol-1-yl)-octanoic acid hydroxyamide] | 82
